Values of other authors in patent US10421710B2, “Substituted phenethylamines with serotoninergic and/or norepinephrinergic activity” (Auspex Pharmaceuticals, Inc., priority 2007, dated 2019).
Values joined by “and” are separate entries in the source; they are usually repeats but may differ in a detail not shown here. Equal entries are not always repeated.

Details: in humans (b8); species not repeated

| half-life (T1/2) | Structure (SMILES) |
| --- | --- |
| ~11 h and 11 h | CN(C)CC(c1ccc(O)cc1)C1(O)CCCCC1 (centres unmarked) [ODV, 0-desmethylvenlafaxine] |
| ~5 h and 3 to 7 h | COc1ccc(C(CN(C)C)C2(O)CCCCC2)cc1 (racemic) [venlafaxine, 1-[2-dimethylamino-1-(4-methoxy-phenyl)-ethyl]-cyclohexanol] |
